“And” between values parts separate entries of the source, which are not always exact repeats. Identical values can stand only once. Inconclusive results and toxic doses are left out. How the source made its calls: active means survival T/C of 150% or more; inactive means T/C below 125% in these data.
System: P388 leukemia ip, CD2F1 mice, survival T/C
Assay: NCI In Vivo Anticancer Drug Screen. Data for tumor model P388 Leukemia (intraperitoneal) in CD2F1 (CDF1) mice
Details: endpoint: median survival time, higher = longer survival
Outline: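 Mice carrying the transplanted tumor received test compound or vehicle. Survival was recorded in each group, and the value is the treated-group measurement divided by that of the vehicle-treated control group.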

[1] = dose: 50.0 mg/kg/injection, schedule: Q01DX009 (ip), vehicle: saline
[2] = dose: 100.0 mg/kg/injection, schedule: Q01DX009 (ip), vehicle: saline
[3] = dose: 12.5 mg/kg/injection, schedule: Q01DX009 (ip), vehicle: saline with Tween-80
[4] = dose: 25.0 mg/kg/injection, schedule: Q01DX009 (ip), vehicle: saline with Tween-80
[5] = dose: 50.0 mg/kg/injection, schedule: Q01DX009 (ip), vehicle: saline with Tween-80
[6] = dose: 100.0 mg/kg/injection, schedule: Q01DX009 (ip), vehicle: saline with Tween-80
[7] = dose: 100.0 mg/kg/injection, schedule: Q04DX003 (ip), vehicle: saline with Tween-80
[8] = dose: 200.0 mg/kg/injection, schedule: Q01DX009 (ip), vehicle: saline with Tween-80
[9] = dose: 200.0 mg/kg/injection, schedule: Q04DX003 (ip), vehicle: saline with Tween-80
[10] = dose: 400.0 mg/kg/injection, schedule: Q04DX003 (ip), vehicle: saline with Tween-80
[11] = dose: 50.0 mg/kg/injection, schedule: Q01DX005 (ip), vehicle: saline with Tween-80
[12] = dose: 100.0 mg/kg/injection, schedule: Q01DX005 (ip), vehicle: saline with Tween-80
[13] = dose: 200.0 mg/kg/injection, schedule: Q01DX005 (ip), vehicle: saline with Tween-80
[14] = dose: 50.0 mg/kg/injection, schedule: Q01DX005 (ip), vehicle: Klucel (hydroxypropylcellulose) (HPC)
[15] = dose: 100.0 mg/kg/injection, schedule: Q01DX005 (ip), vehicle: Klucel (hydroxypropylcellulose) (HPC)
[16] = dose: 200.0 mg/kg/injection, schedule: Q01DX005 (ip), vehicle: Klucel (hydroxypropylcellulose) (HPC)

Measured: T/C

CC(C)(N)CNc1ccccc1
inactive: dose: 25.0 mg/kg/injection, schedule: Q01DX009 (ip), vehicle: saline 111 % of control | [1] 117 % of control | [2] 120 % of control

S=C(Nc1ccc(I)cc1)SCc1ccc2c(c1)OCO2
inactive: dose: 50.0 mg/kg/injection, schedule: Q01DX009 (ip), vehicle: suspension in saline 110 % of control | dose: 100.0 mg/kg/injection, schedule: Q01DX009 (ip), vehicle: suspension in saline 104 % of control | dose: 200.0 mg/kg/injection, schedule: Q01DX009 (ip), vehicle: suspension in saline 101 % of control

CN(C)c1ccc(/C=C\C(=O)c2ccc(C(=O)/C=C/c3ccc(N(C)C)cc3)cc2)cc1
inactive: [3] 99 % of control | [4] 96 % of control | [5] 90 % of control

O=C(NCCO)Nc1ccccc1F
inactive: dose: 100.0 mg/kg/injection, schedule: Q04DX003 (ip), vehicle: saline 100 % of control | dose: 200.0 mg/kg/injection, schedule: Q04DX003 (ip), vehicle: saline 95 % of control | dose: 400.0 mg/kg/injection, schedule: Q04DX003 (ip), vehicle: saline 104 % of control

Nc1cc2ccccc2cc1NS(=O)(=O)N1CCCCC1
inactive: dose: 50.0 mg/kg/injection, schedule: Q01DX009 (ip), vehicle: acetone 94 % of control | dose: 100.0 mg/kg/injection, schedule: Q01DX009 (ip), vehicle: acetone 101 % of control | dose: 200.0 mg/kg/injection, schedule: Q01DX009 (ip), vehicle: acetone 98 % of control

COc1cc([C@H]2c3cc(O)c(OC)cc3C[C@]3(O)[C@@H]2CO[C@@H]3O)ccc1O
inactive: dose: 4.75 mg/kg/injection, schedule: Q01DX005 (ip), vehicle: saline with Tween-80 104 % of control | dose: 9.5 mg/kg/injection, schedule: Q01DX005 (ip), vehicle: saline with Tween-80 95 % of control | dose: 19.0 mg/kg/injection, schedule: Q01DX005 (ip), vehicle: saline with Tween-80 96 % of control | dose: 38.0 mg/kg/injection, schedule: Q01DX005 (ip), vehicle: saline with Tween-80 99 % of control

CS1(=O)=NC(=N)c2ccccc21 (stereo unspecified)
inactive: [1] 102 % of control | [2] 107 % of control

ClC(Cl)(Cl)C1OCCO1
inactive: [5] 95 % of control | [6] 104 % of control | [7] 100 % of control | [8] 90 % of control | [9] 90 % of control | [10] 95 % of control

Cc1cc2nc(C(C)C(=O)c3ccc(Cl)cc3)c(=O)[nH]c2cc1C (stereo unspecified)
inactive: dose: 1.88 mg/kg/injection, schedule: Q01DX005 (ip), vehicle: saline with Tween-80 100 % of control | dose: 3.75 mg/kg/injection, schedule: Q01DX005 (ip), vehicle: saline with Tween-80 104 % of control | dose: 7.5 mg/kg/injection, schedule: Q01DX005 (ip), vehicle: saline with Tween-80 86 % of control

COc1ccc(/C=C/C(C)=N/NC(N)=O)cc1
inactive: [11] 101 % of control | [12] 94 % of control | [13] 96 % of control

CC(=O)OCC(=O)[C@@]12OC(C)(C)O[C@@H]1C[C@H]1[C@@H]3CC(C=O)=C4C=C(OCCCl)CC[C@]4(C)[C@@]3(F)[C@@H](O)C[C@@]12C
inactive: dose: 0.39 mg/kg/injection, schedule: Q01DX009 (ip), vehicle: Klucel (hydroxypropylcellulose) (HPC) 106 % of control | dose: 0.78 mg/kg/injection, schedule: Q01DX009 (ip), vehicle: Klucel (hydroxypropylcellulose) (HPC) 113 % of control | dose: 1.56 mg/kg/injection, schedule: Q01DX009 (ip), vehicle: Klucel (hydroxypropylcellulose) (HPC) 115 % of control

CC12C(=O)NC(c3ccccc3)(c3ccccc31)C1C(=O)N(C(N)=O)C(=O)C12 (stereo unspecified)
inactive: dose: 60.0 mg/kg/injection, schedule: Q01DX005 (ip), vehicle: saline with Tween-80 94 % of control | dose: 120.0 mg/kg/injection, schedule: Q01DX005 (ip), vehicle: saline with Tween-80 89 % of control | dose: 240.0 mg/kg/injection, schedule: Q01DX005 (ip), vehicle: saline with Tween-80 93 % of control

Cc1cc(=O)[nH]c(N/N=C/c2ccc(O)cc2)n1
inactive: dose: 18.75 mg/kg/injection, schedule: Q04DX003 (ip), vehicle: saline sonified 90 % of control | dose: 37.5 mg/kg/injection, schedule: Q04DX003 (ip), vehicle: saline sonified 86 % of control | dose: 75.0 mg/kg/injection, schedule: Q04DX003 (ip), vehicle: saline sonified 104 % of control

CC1CN(Cc2ccccc2O)CC(C)N1 (stereo unspecified)
inactive: dose: 6.25 mg/kg/injection, schedule: Q01DX009 (ip), vehicle: water 90 % of control | dose: 12.5 mg/kg/injection, schedule: Q01DX009 (ip), vehicle: water 93 % of control | dose: 25.0 mg/kg/injection, schedule: Q01DX009 (ip), vehicle: water 106 % of control | dose: 50.0 mg/kg/injection, schedule: Q01DX009 (ip), vehicle: water 91 % of control | dose: 100.0 mg/kg/injection, schedule: Q01DX009 (ip), vehicle: water 94 % of control

Oc1cccnc1Cl
inactive: [4] 110 % of control | [5] 114 % of control | [6] 114 % of control | [2] 102 % of control | [8] 119 % of control | dose: 200.0 mg/kg/injection, schedule: Q01DX009 (ip), vehicle: saline 101 % of control | dose: 400.0 mg/kg/injection, schedule: Q01DX009 (ip), vehicle: saline 108 % of control

O=C(O)C(=O)O.[Ti].[c-]1[c-][c-][cH-][c-]1.[c-]1[c-][c-][cH-][c-]1
inactive: dose: 3.75 mg/kg/injection, schedule: Q01DX005 (ip), vehicle: Klucel (hydroxypropylcellulose) (HPC) 94 % of control | dose: 7.5 mg/kg/injection, schedule: Q01DX005 (ip), vehicle: Klucel (hydroxypropylcellulose) (HPC) 99 % of control | dose: 15.0 mg/kg/injection, schedule: Q01DX005 (ip), vehicle: Klucel (hydroxypropylcellulose) (HPC) 99 % of control | dose: 30.0 mg/kg/injection, schedule: Q01DX005 (ip), vehicle: Klucel (hydroxypropylcellulose) (HPC) 100 % of control

Nc1cc2nc3ccccc3c(=O)n2[nH]1
inactive: [14] 98 % of control | [15] 91 % of control | [16] 86 % of control

O=C(O)/C=N/NS(=O)(=O)c1cccs1
inactive: dose: 12.5 mg/kg/injection, schedule: Q01DX009 (ip), vehicle: other 119 % of control

COc1ccc2[nH]cc(C#N)c(=O)c2c1
inactive: [11] 101 % of control | [12] 90 % of control | [13] 92 % of control

Cc1c2oc3c(C)ccc(C(=O)OCCN4CCOCC4)c3nc-2c(C(=O)OCCN2CCOCC2)c(N)c1=O
inactive: dose: 3.13 mg/kg/injection, schedule: Q01DX009 (ip), vehicle: saline with Tween-80 112 % of control | dose: 6.25 mg/kg/injection, schedule: Q01DX009 (ip), vehicle: saline with Tween-80 110 % of control | [3] 119 % of control | [4] 111 % of control

COc1ccc(COc2ccc(C(=O)CCN3CCOCC3)cc2)cc1
inactive: [14] 99 % of control | [15] 99 % of control | [16] 99 % of control

OC(c1cc(-c2ccccc2)nc2c(Cl)cc(Cl)cc12)C1CCCCN1 (stereo unspecified)
inactive: [3] 107 % of control | [4] 98 % of control | [5] 88 % of control and 95 % of control

OC1(c2ccccc2)c2ccccc2-c2ccccc21
inactive: [7] 109 % of control | [9] 109 % of control | [10] 104 % of control

S=C(N=Nc1ccccc1)NNc1ccccc1
inactive: [3] 100 % of control | [4] 95 % of control | [5] 90 % of control | [7] 90 % of control | [9] 86 % of control | [10] 100 % of control

Cc1nn(CCO)c(C)c1N=[N+]([O-])c1c(C)nn(CCO)c1C
inactive: dose: 10.0 mg/kg/injection, schedule: Q01DX009 (ip), vehicle: suspension in saline 114 % of control | dose: 20.0 mg/kg/injection, schedule: Q01DX009 (ip), vehicle: suspension in saline 120 % of control | dose: 25.0 mg/kg/injection, schedule: Q04DX003 (ip), vehicle: Klucel (hydroxypropylcellulose) (HPC) 111 % of control and 116 % of control | dose: 30.0 mg/kg/injection, schedule: Q01DX009 (ip), vehicle: suspension in saline 116 % of control | dose: 50.0 mg/kg/injection, schedule: Q04DX003 (ip), vehicle: Klucel (hydroxypropylcellulose) (HPC) 115 % of control and 122 % of control | dose: 60.0 mg/kg/injection, schedule: Q01DX009 (ip), vehicle: suspension in saline 120 % of control | dose: 100.0 mg/kg/injection, schedule: Q04DX003 (ip), vehicle: Klucel (hydroxypropylcellulose) (HPC) 114 % of control and 96 % of control
